Source: ChEMBL document CHEMBL1212812, “Multi-target spectral moment QSAR versus ANN for antiparasitic drugs against different parasite species” (Bioorg Med Chem, 2010)

Key:
Format in all cases: functional, organism-based
[1] = system: Trypanosoma brucei brucei; assay: Antimicrobial activity against Trypanosoma brucei brucei
Trichomonas vaginalis = assay: Antimicrobial activity against Trichomonas vaginalis
Leishmania infantum = assay: Antimicrobial activity against Leishmania infantum
Trypanosoma cruzi = assay: Antimicrobial activity against Trypanosoma cruzi
Leishmania donovani = assay: Antimicrobial activity against Leishmania donovani
Plasmodium falciparum = assay: Antimicrobial activity against Plasmodium falciparum

Structure (SMILES) | IC50 (Trichomonas vaginalis) [µM] | IC50 (Leishmania infantum) [µM] | also measured
CCCN(CCC)c1c([N+](=O)[O-])cc(S(=O)(=O)Nc2ccccn2)cc1[N+](=O)[O-] |  |  | IC50 [1]: 9 µM
CN(C)c1ccc(Nc2nc3ccc([N+](=O)[O-])cc3s2)cc1 | 166 | 25 | 
CC(C)(C)OC(=O)NC(=N)c1ccc(NC(=O)Cn2cnc([N+](=O)[O-])c2)cc1 |  |  | IC50 [1]: 200 µM
O=C(/C=C/C=C/c1ccc2c(c1)OCO2)OC1CCCCC1 |  |  | IC50 (Trypanosoma cruzi; Trypanosoma cruzi): 83 µM
CCN(CC)CCCNc1nc2ccc(N)cc2s1 | 200 | 65 | 
Nc1ccc2nc(Nc3cccc(O)c3)sc2c1 | 200 | 19 | 
CCCN(CCC)c1c([N+](=O)[O-])cc(S(=O)(=O)Nc2cccc(Cl)c2)cc1[N+](=O)[O-] |  |  | IC50 [1]: 2 µM; IC50 (Leishmania donovani): 6 µM
O=C(O)c1ccccc1Nc1ccc2nc(Nc3ccccc3)sc2c1 | 41 | 30 | 
COc1cc(NS(C)(=O)=O)ccc1Nc1nc2ccc(Nc3ccccc3C(=O)O)cc2s1 | 22 | 13 | 
CCO[C@H]1O[C@@H]2O[C@@]3(C)CC[C@H]4[C@H](C)CC[C@@H]([C@H]1C)[C@@]24OO3 [ARTEMOTIL] |  |  | IC50 (Plasmodium falciparum): 1000 µM; IC50 (Leishmania donovani): 45 µM
Nc1ccc2nc(Cl)sc2c1 | 200 | 54 | 
Cn1c2nc3ccc(C#N)cc3c-2cc2cc(F)ccc21 |  |  | IC50 (Trypanosoma cruzi; Trypanosoma cruzi): 32 µM
COc1cc(NS(C)(=O)=O)ccc1Nc1nc2ccc(N)cc2s1 | 156 | 10 | 
Cc1ncc([N+](=O)[O-])n1CCO [METRONIDAZOLE] | 3 |  | 
Nc1ccc2nc(N3CCCCC3)sc2c1 | 214 | 10 | 
O=C(O)c1ccccc1Nc1ccc2nc(Nc3cccc(O)c3)sc2c1 | 134 | 237 | 
CN(C)c1nc2ccc(N)cc2s1 | 200 | 2 | 
O=C(/C=C/c1ccc2c(c1)OCO2)N1CCCCC1 [ILEPCIMIDE] |  |  | IC50 (Trypanosoma cruzi; Trypanosoma cruzi): 97 µM
CN(C)c1ccc(Nc2nc3ccc(N)cc3s2)cc1 | 133 | 73 | 
CC(=O)Nc1nc2ccc(N)cc2s1 | 200 | 121 | 
[N-]=[N+]=NCCOc1ccc(Oc2ccccc2)cc1 |  |  | IC50 (Trypanosoma cruzi; Trypanosoma cruzi): 70 µM
NNc1nc(N)nc(N)n1 |  |  | IC50 [1]: 200 µM
CCN(CC)CCCNc1nc2ccc([N+](=O)[O-])cc2s1 | 49 | 4 | 
O=C(O)c1ccccc1Nc1ccc2nc(Cl)sc2c1 | 17 | 5 | 

Structure (SMILES) | IC50 (Trichomonas vaginalis) [µM] | IC50 (Leishmania infantum) [µM] | also measured
Nc1ccc2nc(NCCO)sc2c1 | 200 | 3 | 
Nc1nc2ccc(Nc3ccccc3C(=O)O)cc2s1 | 125 | 2 | 
c1ccc(CSCCOc2ccc(Oc3ccccc3)cc2)cc1 |  |  | IC50 (Trypanosoma cruzi; Trypanosoma cruzi): 60 µM
Nc1nc(N)nc(N/N=C\c2ccc([N+](=O)[O-])s2)n1 |  |  | IC50 [1]: 1 µM
Nc1nc2ccc([N+](=O)[O-])cc2s1 | 200 | 51 | 
CC(=O)Nc1nc2ccc([N+](=O)[O-])cc2s1 | 200 | 1 | 
O=[N+]([O-])c1ccc2nc(Cl)sc2c1 | 2 | 48 | 
C[S+]([O-])CCCCN=C=S (configuration not stated) [SULFORAPHANE] |  |  | IC50 (Trypanosoma cruzi): 102 µM; IC50 (Trypanosoma cruzi; Trypanosoma cruzi): 120 µM
COc1ccc(CCNC(=O)/C=C/C=C/c2ccc3c(c2)OCO3)cc1OC |  |  | IC50 (Trypanosoma cruzi; Trypanosoma cruzi): 66 µM
CCCCCCN(CCCCCC)S(=O)(=O)c1cc([N+](=O)[O-])c(N(CCC)CCC)c([N+](=O)[O-])c1 |  |  | IC50 [1]: 50 µM; IC50 (Leishmania donovani): 100 µM
Cc1ccc2c(c1)cc1c3ccccc3nc-1n2C |  |  | IC50 (Plasmodium falciparum): 2 µM; IC50 (Trypanosoma cruzi; Trypanosoma cruzi): 4 µM
O=[N+]([O-])c1ccc2nc(N3CCCCC3)sc2c1 | 189 | 6 | 
CCCN(CCC)c1c([N+](=O)[O-])cc(S(=O)(=O)N(C)C)cc1[N+](=O)[O-] |  |  | IC50 [1]: 6 µM; IC50 (Leishmania donovani): 100 µM
O=C(O)c1ccccc1Nc1ccc2nc(N3CCCCC3)sc2c1 | 83 | 15 | 
CCCNS(=O)(=O)c1cc([N+](=O)[O-])c(N(CCC)CCC)c([N+](=O)[O-])c1 |  |  | IC50 [1]: 9 µM
CNc1nc(NC)nc(N/N=C\c2ccc([N+](=O)[O-])o2)n1 |  |  | IC50 [1]: 15 µM
CN(C)c1nc2ccc([N+](=O)[O-])cc2s1 | 200 | 4 | 
CCCN(CCC)c1c([N+](=O)[O-])cc(S(=O)(=O)NCC)cc1[N+](=O)[O-] |  |  | IC50 [1]: 5 µM; IC50 (Leishmania donovani): 100 µM
O=[N+]([O-])c1ccc2nc(Nc3ccccc3)sc2c1 | 186 | 36 | 
O=C=NCCOc1ccc(Oc2ccccc2)cc1 |  |  | IC50 (Trypanosoma cruzi; Trypanosoma cruzi): 70 µM
O=C(/C=C/c1ccc2c(c1)OCO2)N1CCOCC1 |  |  | IC50 (Trypanosoma cruzi; Trypanosoma cruzi): 96 µM
CCN(CC)c1nc2ccc([N+](=O)[O-])cc2s1 | 200 | 99 | 
CC(C)(C)OC(=O)NC(=N)c1ccc(NC(=O)Cn2ccnc2[N+](=O)[O-])cc1 |  |  | IC50 [1]: 119 µM
CCCN(CCC)c1c([N+](=O)[O-])cc(S(=O)(=O)N2CCOCC2)cc1[N+](=O)[O-] |  |  | IC50 [1]: 100 µM; IC50 (Leishmania donovani): 100 µM

Structure (SMILES) | IC50 (Trichomonas vaginalis) [µM] | IC50 (Leishmania infantum) [µM] | also measured
CC(=O)N1CCN(c2ccc(OCC3COC(Cn4ccnc4)(c4ccc(Cl)cc4Cl)O3)cc2)CC1 (configuration not stated) [KETOCONAZOLE] |  |  | IC50 (Trypanosoma cruzi; Trypanosoma cruzi): 3 µM; IC50 (Leishmania donovani): 2 µM
CN(C)c1nc2ccc(Nc3ccccc3C(=O)O)cc2s1 | 102 | 80 | 
O=C(O)/C=C/C=C/c1ccc2c(c1)OCO2 [PIPERIC ACID] |  |  | IC50 (Trypanosoma cruzi; Trypanosoma cruzi): 115 µM
COc1ccc2cc3c4ccccc4nc-3n(C)c2c1 |  |  | IC50 (Plasmodium falciparum): 2 µM; IC50 (Trypanosoma cruzi; Trypanosoma cruzi): 1 µM
N#CSCCOc1ccc2[nH]c3ccccc3c2c1 |  |  | IC50 (Trypanosoma cruzi; Trypanosoma cruzi): 10 µM
CCCN(CCC)c1c([N+](=O)[O-])cc(S(=O)(=O)NC2CC2)cc1[N+](=O)[O-] |  |  | IC50 [1]: 3 µM
C[C@]12CC[C@H](O)C[C@@H]1CC[C@@H]1[C@@H]2CC[C@@]2(C)[C@H]1CC[C@@H]2[C@@](C)(O)C1CCCCN1 (some centres not stated) |  |  | IC50 (Trypanosoma cruzi; Trypanosoma cruzi): 1 µM
CCCN(CCC)c1c([N+](=O)[O-])cc(S(=O)(=O)NC)cc1[N+](=O)[O-] |  |  | IC50 [1]: 5 µM; IC50 (Leishmania donovani): 100 µM
O=C(/C=C/C=C/c1ccc2c(c1)OCO2)N1CCCCC1 [PIPERINE] |  |  | IC50 (Trypanosoma cruzi; Trypanosoma cruzi): 5 µM
CCCNc1nc2ccc(Nc3ccccc3C(=O)O)cc2s1 | 76 | 39 | 
Nc1ccc2nc(N)sc2c1 | 200 | 151 | 
C(/C=C/c1ccc2c(c1)OCO2)=C\CN1CCCCC1 |  |  | IC50 (Trypanosoma cruzi; Trypanosoma cruzi): 10 µM
C[C@@H]1[C@H](O)[C@@H](C)/C=C/C=C/C=C/C=C/C=C/C=C/C=C/[C@H](O[C@@H]2O[C@H](C)[C@@H](O)[C@H](N)[C@@H]2O)C[C@@H]2O[C@](O)(C[C@@H](O)C[C@@H](O)[C@H](O)CC[C@@H](O)C[C@@H](O)CC(=O)O[C@H]1C)C[C@H](O)[C@H]2C(=O)O [AMPHOTERICIN B] | 12 |  | 
CCCN(CCC)c1c([N+](=O)[O-])cc(S(=O)(=O)N2CCCC2)cc1[N+](=O)[O-] |  |  | IC50 [1]: 7 µM
c1ccc(Oc2ccc(OCN3CC3)cc2)cc1 |  |  | IC50 (Trypanosoma cruzi; Trypanosoma cruzi): 42 µM
CCN(CC)c1c([N+](=O)[O-])cc(S(=O)(=O)Nc2ccccc2)cc1[N+](=O)[O-] |  |  | IC50 [1]: 3 µM
CCN(CC)CCCNc1nc2ccc(Nc3ccccc3C(=O)O)cc2s1 | 134 | 2 | 
CCCN(CCC)c1c([N+](=O)[O-])cc(S(=O)(=O)N(CC)CC)cc1[N+](=O)[O-] |  |  | IC50 [1]: 8 µM
CN(C)c1ccc(Nc2nc3ccc(Nc4ccccc4C(=O)O)cc3s2)cc1 | 26 | 68 | 
CCCN(CCC)c1c([N+](=O)[O-])cc(S(=O)(=O)Nc2cccc(C)c2)cc1[N+](=O)[O-] |  |  | IC50 [1]: 2 µM
CSCCOc1ccc(Oc2ccccc2)cc1 |  |  | IC50 (Trypanosoma cruzi; Trypanosoma cruzi): 100 µM
Cn1c2nc3ccccc3c-2cc2cc(Br)ccc21 |  |  | IC50 (Trypanosoma cruzi; Trypanosoma cruzi): 32 µM
N#CSCCOc1ccc([S+]([O-])c2ccccc2)cc1 (configuration not stated) |  |  | IC50 (Trypanosoma cruzi; Trypanosoma cruzi): 8 µM
[N-]=[N+]=NC(CO)COc1ccc(Oc2ccccc2)cc1 (configuration not stated) |  |  | IC50 (Trypanosoma cruzi; Trypanosoma cruzi): 70 µM

Structure (SMILES) | IC50 (Trichomonas vaginalis) [µM] | IC50 (Leishmania infantum) [µM] | also measured
O=C(O)c1ccccc1Nc1ccc2nc(NCCO)sc2c1 | 158 | 4 | 
Nc1ccc2nc(Nc3ccccc3)sc2c1 | 208 | 63 | 
O=C(CCCCc1ccc2c(c1)OCO2)N1CCCCC1 [TETRAHYDROPIPERINE] |  |  | IC50 (Trypanosoma cruzi; Trypanosoma cruzi): 19 µM
CC(=O)Nc1nc2ccc(Nc3ccccc3C(=O)O)cc2s1 | 18 | 18 | 
CCCNc1nc2ccc([N+](=O)[O-])cc2s1 | 200 | 1 | 
C[C@@H]1CC[C@H]2CC(=O)O[C@@H]3O[C@@]4(CCCc5ccc(Cl)cc5)CC[C@@H]1[C@@]23OO4 |  |  | IC50 (Leishmania donovani): 11 µM
COc1ccc2c(c1)cc1c3ccccc3nc-1n2C |  |  | IC50 (Plasmodium falciparum): 5 µM; IC50 (Trypanosoma cruzi; Trypanosoma cruzi): 2 µM
COc1cc(NS(C)(=O)=O)ccc1Nc1nc2ccc([N+](=O)[O-])cc2s1 | 83 | 18 | 
C[C@@H]1CC[C@H]2[C@@H](CCCc3ccc(S(C)(=O)=O)cc3)C(=O)O[C@@H]3O[C@@]4(C)CC[C@@H]1[C@]32OO4 |  |  | IC50 (Leishmania donovani): 54 µM
N#CSCCOc1ccc(Nc2ccccc2)cc1 |  |  | IC50 (Trypanosoma cruzi; Trypanosoma cruzi): 3 µM
O=C(/C=C/C=C/C=C/c1ccc2c(c1)OCO2)N1CCCCC1 |  |  | IC50 (Trypanosoma cruzi; Trypanosoma cruzi): 7 µM
O=[N+]([O-])c1ccc2nc(NCCO)sc2c1 | 200 | 104 | 
O=C(/C=C/C=C/c1ccc2c(c1)OCO2)NCC1CCCCC1 |  |  | IC50 (Trypanosoma cruzi; Trypanosoma cruzi): 81 µM
O=C(Cn1ccnc1[N+](=O)[O-])NCc1ccccc1 [BENZNIDAZOLE] |  |  | IC50 (Trypanosoma cruzi; Trypanosoma cruzi): 3 µM
C[C@@H]1CC[C@H]2[C@@H](CCCCc3ccccc3)C(=O)O[C@@H]3O[C@@]4(C)CC[C@@H]1[C@]32OO4 |  |  | IC50 (Leishmania donovani): 8 µM
CCN(CC)c1nc2ccc(Nc3ccccc3C(=O)O)cc2s1 | 3 | 33 | 
CCCNc1nc2ccc(N)cc2s1 | 200 | 98 | 
CCCN(CCC)c1c([N+](=O)[O-])cc(S(=O)(=O)Nc2ccc(Cl)c(Cl)c2)cc1[N+](=O)[O-] |  |  | IC50 [1]: 8 µM
CCN(CC)c1nc2ccc(N)cc2s1 | 200 | 23 | 
CC(C)CCC[C@H]1C(=O)O[C@@H]2O[C@@]3(C)CC[C@H]4[C@H](C)CC[C@@H]1[C@@]24OO3 |  |  | IC50 (Leishmania donovani): 9 µM
CNc1nc(NC)nc(NN)n1 |  |  | IC50 [1]: 200 µM
O=[N+]([O-])c1ccc2nc(Nc3cccc(O)c3)sc2c1 | 174 | 15 | 
NCCC[C@](N)(C(=O)O)C(F)F [EFLORNITHINE, (S)-] |  |  | IC50 (Leishmania donovani): 225 µM
CCCC[C@@]12CC[C@H]3[C@H](C)CC[C@H]4CC(=O)O[C@H](O1)[C@]43OO2 |  |  | IC50 (Leishmania donovani): 258 µM
